Experimental data as given in article PMC9100651, “Focused Design of Novel Cyclic Peptides Endowed with GABARAP-Inhibiting Activity” (International Journal of Molecular Sciences, 2022).
Several values for one entry are separate records, joined by “and”; a condition that tells them apart may be missing. Equal values may be shown once. Read-outs that look alike come from different tables or passages of the source. Bridge positions count the residues as written; N and C are the ends. Peptide text beside a SMILES is read from it.

Assays:
GABARAP [1] = molecular target: T1, GABARAP (Homo sapiens, UniProt O95166); test: Surface Plasmon Resonance (SPR), steady-state affinity; format: binding
Description: SPR experiments were performed on a BIAcore 8K system (Cytiva, Marlborough, MA, USA). GABARAP was dissolved in 10 mM of sodium acetate (pH 5.5) and amine-coupled to a CM5 sensor chip (GE Healthcare, Chicago, IL, USA). The reference peptide K1 was dissolved in the running buffer (10 mM Hepes, pH 7.4, 150 mM NaCl) at concentrations of 10 μM to 156 nM. Gradient concentrations of K1 were injected at a flow rate of 30 μL/min, contact time 120 s at 25 °C. WC8 and WC10 were both dissolved in the running buffer (Sigma-Aldrich Dulbecco’s PBS, pH 7.4, 0.005% Tween™ and 5% DMSO; Sigma-Aldrich, St. Louis, MO, USA) at concentrations of 100 μM to 6.25 μM and 12.5 μM to 390 nM, respectively. Gradient concentrations of the peptides were then flowed over the chip with a flow rate of 30 μL/min, contact time 120 s at 25 °C. […] Two independent experiments for WC8 and WC10 were performed. The binding kinetics were evaluated using the BIAevaluation software package and applying the 1:1 steady-state affinity model.

[2] = molecular target: T2, 6-His-tagged recombinant GABARAP (Homo sapiens, UniProt O95166); test: Microscale Thermophoresis (MST) binding affinity
T2 construct: purchased Abcam, Cambridge, UK
Description: The binding affinity (Kd) between the target protein (6-His-tagged recombinant GABARAP, produced by Abcam, Cambridge, UK) and peptide ligands (K1, WC8 and WC10, acquired by ProteoGenix, Schiltigheim, France) was measured by MST [22]. Briefly, histidine-tagged GABARAP was labeled by using a His-tag-specific dye for 30 min at room temperature, using either the conventional Monolith His-Tag Labeling Kit RED-tris-NTA (MO-L008) or the newer Monolith His-Tag Labeling Kit RED-tris-NTA 2nd Generation (MO-L018), both purchased from NanoTemper Technologies (GmbH, München, Germany). MST experiments were performed on both a Monolith NT.115 and a Monolith NT.115Pico instrument (NanoTemper Technologies, München, GmbH), in order to further increase the statistical significance of the attained results.
A fixed concentration of the labeled GABARAP protein was mixed with 16 1:1 serial dilutions of K1, WC8, and WC10. The protein and the peptide were incubated for 60–90 min at room temperature. The MST analysis was performed using standard capillaries, with the following experimental settings: an MST power of 40% (to create a temperature gradient) and a different excitation power in relation to the considered system and instrument (see Supplementary Materials for details, Table S1). Kd values were calculated from compound concentration-dependent changes of normalized fluorescence (Fnorm). In all the experiments, both the protein and the peptides were dissolved in PBS-T buffer (phosphate-buffered saline + 0.05% Tween™ 20; NanoTemper Technologies, GmbH) and 2.5% DMSO. The auto-fluorescence of each peptide was evaluated before proceeding to the determination of the Kd. At least two independent experiments were performed to calculate the Kd values. Data were processed using the NanoTemper MO.Affinity Analysis software (version 2.3), and the fitting was performed by using the Kd model. […]
Table S1. Summary table of the Microscale Thermophoresis (MST) experiments performed on both
Monolith NT.115 and Monolith NT.115Pico instruments. At least two independent experiments were
performed to compute the Kd value.
Protein Ligand MST Exc. Temp. [Ligand] Range SNR* Kd (µM)

[3] = system: PC-3 prostate cancer cells; settings: human, 96 h, 10 µM
Description: (§1) PC-3 prostate cancer cell line was purchased from the American Type Culture Collection (ATCC, Manassas, VA, USA), cultured at 37 °C and 5% CO2 in Ham’s F-12 K (Kaighn’s) basal medium (Gibco Laboratories, Grand Island, NY, USA), supplemented with 10% FBS (Gibco Laboratories) and 1% of 100 U/mL penicillin/streptomycin (Gibco Laboratories).
(§2) PC-3 and PNT2 cell lines were seeded at a density of 1 × 10^4 cells/well in 96-well plates and maintained under standard growth conditions.
(§3) After 96 h, cell viability was assessed by MTS assay according to the manufacturer’s protocol (Cell Titer 96 Aqueous One Solution Cell Proliferation Assay; Promega, Nacka, Sweden) using a 96-well-plate spectrophotometer (Varioskan Flash Multimode Reader; Thermo-Scientific, Waltham, MA, USA) set at λ = 490 nm. The absorbance value of untreated cells was set at 100% (control), and the viability of treated cells was expressed as a percentage of the control. Three independent experiments were performed in triplicate for each condition.

GABARAP [4] = molecular target: T1, GABARAP; set-up: method as in PMID 18638487; settings: SPR; cited from earlier work
[5] = system: PC-3 prostate cancer cells; test: MTS cell viability assay on PC-3 cells; settings: for cell viability: PC-3, highest tested concentration (10 µM), 96 h post-treatment, % of untreated control
Description: as §1, §2, §3

[6] = Solubility and stability in water and PBS buffer
Description: Initially, we verified that the peptides were water soluble and stable in the buffer in which the recombinant GABARAP protein was solved.

GABARAP [7] = molecular target: T1, GABARAP; set-up: method as in PMID 29867141; settings: cited from earlier work
[8] = Kd (MST), Monolith NT.115Pico, GABARAP 10 nM, 25°C
[9] = Kd on GABARAP, consistent among MST and SPR

T1 sequence (O95166 whole entry): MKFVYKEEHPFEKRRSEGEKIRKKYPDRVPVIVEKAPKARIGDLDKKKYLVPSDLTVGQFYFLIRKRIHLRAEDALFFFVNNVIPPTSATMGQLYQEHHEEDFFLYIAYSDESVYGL
T2 sequence (O95166 whole entry): as above

## CC(C)C[C@H](NC(=O)[C@H](Cc1c[nH]cn1)NC(=O)[C@H](CCC(=O)O)NC(=O)[C@H](Cc1c[nH]c2ccccc12)NC(=O)[C@@H](NC(=O)[C@H](Cc1ccc(O)cc1)NC(=O)[C@@H](NC(=O)[C@H](C)NC(=O)[C@@H](N)CC(=O)O)[C@@H](C)O)[C@@H](C)O)C(=O)N[C@@H](C)C(=O)N[C@@H](Cc1c[nH]c2ccccc12)C(=O)N1CCC[C@H]1C(=O)O [Peptide K1, DATYTWEHLAWP, reference compound]
GABARAP [1]; BIAcore 8K, steady-state analysis, 25 °C, read-out: Kd (SPR)
  Kd: 3 µM
[2]; Monolith NT.115, 25°C, PBS-T, 2.5% DMSO, read-out: Kd (MST)
  Kd: 2.6 ± 0.4 µM
[2]; Monolith NT.115Pico, GABARAP 10 nM, 25°C, read-out: Kd (MST)
  Kd: 3.5 ± 0.9 µM
[2]; consistent among MST and SPR, read-out: Kd on GABARAP
  Kd: ~3 µM
[3]
  cell viability: 27.16%
GABARAP [4]
  Kd: 0.39 µM and ~0.39 µM

## CC[C@H](C)[C@@H]1NC(=O)[C@@H](NC(=O)[C@H](CCC(=O)O)NC(=O)[C@@H](N)Cc2c[nH]c3ccccc23)CSSC[C@@H](C(=O)O)NC(=O)[C@H](CCC(=O)O)NC(=O)[C@H](CC(=O)O)NC(=O)[C@H](Cc2ccccc2)NC1=O [WC8, WECIFDEC] (H-WECIFDEC-OH; disulfide 3-8; N-terminus assumed)
[5]; PC-3, from 1 to 10 µM, 96 h
  efficacy on PC-3 cells compared to Paclitaxel: high efficacy
[5]
  cell viability: 24.06%
GABARAP [1]
  Kd: 24.8 µM
[2]; [8]
  Kd: 20.8 ± 2.7 µM
[2]; [9]
  Kd: 22 µM
[2]; consistent among MST and SPR
  Kd on GABARAP: low micromolar range
[6]
  stability in water and PBS: excellent stability

## CC[C@H](C)[C@@H]1NC(=O)[C@@H](NC(=O)[C@H](CCC(=O)O)NC(=O)[C@H](Cc2c[nH]c3ccccc23)NC(=O)CNC(=O)[C@@H](N)Cc2c[nH]c3ccccc23)CSSC[C@@H](C(=O)O)NC(=O)[C@H](CCC(=O)O)NC(=O)[C@H](CC(=O)O)NC(=O)[C@H](Cc2ccccc2)NC1=O [WC10, WGWECIFDEC] (H-WGWECIFDEC-OH; disulfide 5-10; N-terminus and C-terminus assumed)
[5]
  cell viability: 22.5%
GABARAP [1]
  Kd: 4.9 µM
[2]; Kd (MST), Monolith NT.115, 25°C, PBS-T, 2.5% DMSO
  Kd: 4.2 ± 1.8 µM
[2]; [8]
  Kd: 3.8 ± 1.5 µM
[2]; [9]
  Kd: ~4 µM
[2]; consistent among MST and SPR
  Kd on GABARAP: low micromolar range
[6]
  stability in water and PBS: excellent stability

## EEWVIVSDEEIEEARQKA [AnkB-LIR]
GABARAP [7]
  Kd: 0.00027 µM
